Like-named read-outs stand apart in the source and are kept apart here.
Legend:
[1] = tested on: normal lymphocytes; assay: Quantification of cytokine and chemokine synthesis by ELISA; format: cell-based, human
Protocol: FIGS. 8A-8H show synthesis of cytokines and chemokine in RR1-induced normal lymphocytes. Normal lymphocytes from healthy volunteers were treated with RR1 (0-100 μg) at 37° C. for 24 hours in a CO2 incubator in RPMI medium. The supernatant medium was analyzed for the production of cytokines and chemokine in an ELISA procedure using reagent kits (BD Biosciences).
Immunostimulating Properties. To measure the immune stimulatory property of RR1, the activation of the different subsets of lymphocytes, syntheses of cytokines such as interleukin (IL)-1β, IL-2, IL-4, IL-6, IL-10, IL-12 p70 and p40, IL-18, interferon (IFN)-α and γ, Tumor Necrosis factor (TNF)-α and β, monocyte chemo-attractant protein (MCP)-1, synthesis of nitric oxide (NO), and the extent of oxidative stress elicited in human lymphocytes was analyzed. Normal lymphocytes were isolated by the histopaque density gradient method from fresh blood drawn from healthy volunteers and utilized for various assays. Human leukemic (CEM) and multidrug resistant (CEM/VLB) cell lines were grown in RPMI medium supplemented with 10% fetal bovine serum and antibiotics in 5% CO2 incubator at 37° C.
Quantification of Cytokine and Chemokine Synthesis. Cytokines such as IL-1β, IL-2, IL-4, IL-6, IL-10, IL-12p40, IL-12p70, IL-18, IFN-γ and TNF-α, β and chemokine, MCP-1 were quantified by ELISA procedure using kits from BD Biosciences, according to manufacturer's protocols. IFN-α was assayed using the ELISA kit of RESEARCH DIAGNOSTICS Inc. (New Jersey). In short, 50 μl of ELISA diluent is pipetted into antibody coated wells of 96 well plates followed by 100 μl of each standard and test samples, shaken for 5 seconds to mix the contents in the wells, covered with plate sealer and incubated for 2 hours at room temperature. After incubation, the contents of the wells were aspirated and washed five times with wash solution. After complete removal of the wash solution in the final wash, 100 μl of detection solution was added, covered with plate sealer, and incubated for 1 hour. The wells were washed 7 times with wash solution and added 100 μl of one step substrate reagent and incubated for 30 minutes in dark. The color development was stopped by adding 50 μl of stop solution and the absorbance were recorded at 450 nm with a reference wave length of 570 nm in a BIO-RAD Benchmark plate reader.

[2] = tested on: RAW 264.7 cells; assay: RR1-induced TNF-α synthesis with and without CAPE, ELISA; format: cell-based, mouse; conditions: RAW 264.7, RR1 0-1000 μg/ml
Protocol: The cells were pre-incubated with 10 μg/ml CAPE for 1 hour in 0.5% FBS containing DMEM medium and replaced with medium containing RR1 at varying concentrations for 4 hour at 37° C. The medium was analyzed for secreted TNF-α using ELISA protocol.
RR1-induced TNF-α synthesis. RAW 264.7 cells (0.5×10^6/ml) were plated on 6-well plates with DMEM medium containing 0.5% FBS (starvation). Once the cells were attached, medium was replaced, RR1 was added at 0, 100, 500 and 1000 μg/ml doses and incubated at 37° C. for 24 hours. The medium was analyzed for the secreted TNF-α using the ELISA kit (BD BIOSCIENCES kit, San Jose, Calif.) based on the manufacturer's protocol.
To determine the effect of NF-κB inhibitor CAPE on TNF-α synthesis, RAW 264.7 cells were treated with 10 μg/ml of CAPE for 1 hour at 37° C. followed by treatment with RR1 (0-1000 μg/ml) overnight in the incubator. The secreted TNF-α in the medium was analyzed using ELISA (BD BIOSCIENCES, San Jose, Calif.).

[3] = RR1 0-100 μg, 24 hours (FIGS. 8A-8H)

(1,4)-α-D-glucan [RR1]
synthesis of IFN-γ [1]: 90.16 pg/mL | synthesis of IL-6 [1]: 21833 pg/mL | synthesis of IL-12 p40 [1]: 918.23 pg/mL | synthesis of IL-12 p70 [1]: 50.19 pg/mL | synthesis of MCP-1 [1]: 2307 pg/mL | production of IFN-α ([1]; 24 hours): did not induce | production of IL-2 ([1]; 24 hours): did not induce | production of IL-4 ([1]; 24 hours): did not induce | production of IL-10 ([1]; 24 hours): did not induce | production of TNF-β ([1]; 24 hours): did not induce | RR1 concentration at which the maximum IL-12 (p40) was recorded ([1]; FIG. 8C): 10 µg/mL | synthesis of IFN-γ [1, 3]: 90.16 pg | synthesis of IL-1β [1, 3]: 1080 pg | synthesis of IL-6 [1, 3]: 21833 pg | synthesis of IL-12 p40 [1, 3]: 918.23 pg | synthesis of IL-12 p70 [1, 3]: 50.19 pg | synthesis of IL-18 [1, 3]: 27.47 pg | synthesis of MCP-1 [1, 3]: 2307 pg | synthesis of TNF-α [1, 3]: 2225 pg | synthesis of IL-18 ([1]; at 100 pg/ml concentration): 27.47 pg/mL | synthesis of TNF-α ([1]; at 100 pg/ml concentration): 2225 pg/mL | synthesis of TNF-α [2]: dose-dependent increase

Reference: US7425548B2, “Materials and methods for immune system stimulation” (Variety Chidren's Hospital, priority 2004, dated 2008)
